The source of these data is paper PMC6723352, “Exploring Structure-Activity Relationship in Tacrine-Squaramide Derivatives as Potent Cholinesterase Inhibitors” (Biomolecules, 2019).

Read-outs that look alike come from different tables or passages of the source.

Data set [1] deals with T1, human AChE (hAChE), recombinant acetylcholinesterase (Homo sapiens, UniProt P22303).
T1 construct: made in house
As to the kind of experiment: hAChE inhibition, modified Ellman's method. It is filed as biochemical. The conditions noted are these: for SI (selectivity index for hAChE): ratio IC50(hBChE)/IC50(hAChE); for times more potent than reference (hAChE): 3a vs THA, 5d vs 7-MEOTA. Here is the method:
Three series of tacrine-squaramide homodimers were tested for their inhibitory potential against human AChE (hAChE) and human BChE (hBChE) enzymes using modified spectrophotometric method of Ellman et al.. THA, 6-Cl-THA and 7-MEOTA were used as reference compounds. […].
(§1) Human plasmatic butyrylcholinesterase (BChE; EC 3.1.1.8) and recombinant acetylcholinesterase (AChE; 3.1.1.7) were prepared at the Department of Toxicology and Military Pharmacy. 5,5′-dithiobis(2-nitrobenzoic acid) (Ellman’s reagent, DTNB), phosphate buffer (PB, pH 7.4), acetylthiocholine (ATC) and butyrylthiocholine (BTC), were purchased from Sigma-Aldrich, Prague, Czech Republic. For measuring purposes – polystyrene Nunc 96-well microplates with flat bottom shape (ThermoFisher Scientific, USA) were utilized.
(§2) All the assays were carried out in 0.1 M KH2PO4/K2HPO4 buffer, pH 7.4. Enzyme solutions were prepared at 2.0 units/mL in 2 mL aliquots. The assay medium (100 µL) consisted of 40 µL of 0.1 M phosphate buffer (pH 7.4), 20 µL of 0.01 M DTNB, 10 µL of the enzyme, and 20 µL of 0.01 M substrate (ATC/BTC iodide solution).
(§3) Tested compounds were preincubated for 5 min. The reaction was started by immediate addition of 20 µL of the substrate. The activity was determined by measuring the increase in absorbance at 412 for AChE/BChE at 37 °C at 2 min intervals - using a Multi-mode microplate reader Synergy 2 (Winooski, VT, USA). Each concentration was assayed in triplicate. Software GraphPad Prizm 5 (San Diego, CA, USA) was used for the statistical data evaluation.

The target of data set [2] is human BChE (hBChE), human plasmatic butyrylcholinesterase (Homo sapiens, UniProt P06276). In words: hBChE inhibition, modified Ellman's method. The class given is biochemical. As for the experimental part:
Three series of tacrine-squaramide homodimers were tested for their inhibitory potential against human AChE (hAChE) and human BChE (hBChE) enzymes using modified spectrophotometric method of Ellman et al.. THA, 6-Cl-THA and 7-MEOTA were used as reference compounds.
as §1, §2, §3

The nature of the next data set: in vitro. The conditions noted are these: human. Here is the method:
The human origin cell line HepG2 (ATCC, Mannassas, VA, USA) isolated from liver hepatocellular carcinoma was used to evaluate cytotoxicity of tested compounds. The cells were cultivated in Dublecco’s modified Eagle’s medium (DMEM; Biosera, Nuaille, France) supplemented with 10% fetal bovine serum (Biosera) and 1% penicillin-streptomycin antibiotic solution (Sigma-Aldrich, St. Louis, MO, USA), incubated at 37 °C in a CO2 incubator (Binder CO2 incubator BC 160, Tuttlingen, Germany) and routinely passaged by trypsinization at 75–85% confluence.
The final concentration of DMSO was less than 0.25% per well.
After 24-h incubation, the medium containing serially diluted substances was aspirated from each well and replaced by 100 µL of fresh medium containing MTT (0.5 mg/mL). Plates were subsequently incubated at 37 °C in CO2 incubator for 45 min. The medium containing MTT was then aspirated and formazan dissolved in 100 μL of DMSO. The optical density of each well was measured using Synergy 2 Multi-Mode Microplate Reader (BioTek Instruments, Inc., Winooski, VT, USA) at 570 nm. The cell viability was expressed as the percentage of untreated control. Each experiment was performed in triplicate and repeated three independent times.
The IC50 values were expressed as a mean ± standard error of the mean (SEM).

For data set [3] the following is noted: for Pe: PAMPA, PBS pH 7.4; for BBB permeation prediction in words: PAMPA-BBB; for CNS (+/−) predicted BBB permeation: class from Pe. An excerpt:
An important feature for drugs targeting the brain is their ability to cross the BBB. The parallel artificial membrane permeability assay (PAMPA) is a high-throughput screening tool applicable for prediction of passive transport across BBB [57]. […] These include mainly (i) the different composition of the human phospholipid bilayer may cause deviation in predicted permeability, (ii) omitting the absorption of compounds that are actively transported by influx transporters and pumped-out by various efflux mechanisms with the glycoprotein P at the forefront or (iii) transport through the paracellular route which is mostly exploited by small […] molecules. Even considering these drawbacks, PAMPA-BBB is conceived as very simple but powerful tool for BBB prediction.
PAMPA (the parallel artificial membrane permeability assay) is a high-throughput screening tool applicable for prediction of the passive transport of potential drugs across the blood-brain barrier (BBB). In this study, it has been used as a non-cell-based in vitro assay carried out in a coated 96-well membrane filter. The filter membrane of the donor plate was coated with PBL (Polar Brain Lipid, Avanti, USA) in dodecane (4 µl of 20 mg/mL PBL in dodecane) and the acceptor well was filled with 300 µl of phosphate buffer saline, (PBS pH 7.4; VA). The tested compounds were dissolved first in DMSO and then diluted with PBS pH 7.4 to reach the final concentrations 50–500 µM in the donor well. […] In principle, test compound diffuse from the donor well through the polar brain lipid membrane (area = 0.28 cm^2) to the acceptor well. The concentration of the tested compound in both donor and the acceptor wells were assessed after 3, 4, 5 and 6 h of incubation in quadruplicate using the UV plate reader Synergy HT (Biotek, USA) at the maximum absorption wavelength of each compound (n = 3). Besides that, the solution of theoretical compound concentration, simulating the equilibrium state, established if the membrane was ideally permeable was prepared and assessed as well.

In a further data set the target is T2, hAChE (Homo sapiens, UniProt P22303).
T2 construct: made in house
As to the kind of experiment: Kinetic study of AChE inhibition. It is filed as biochemical. Here is the method:
Kinetic study was performed in order to describe the interactions of the compounds 4b and 3e with hAChE and hBChE, respectively. Inhibition kinetics were elucidated from velocity curves that were measured at several concentrations of the corresponding substrate (AChE—acetylthiocholine, BChE—butyrylthiocholine) and tested compounds. The type of enzyme inhibition and corresponding kinetic parameters (Ki and Ki’) were determined by nonlinear regression analysis. Results for each type model of inhibition (competitive, non-competitive, uncompetitive and mixed) were compared by sum-of-squares F-test. […].
The kinetic study of AChE and BChE was performed by using the above-mentioned modified Ellman’s method. The values of Vmax and Km of the Michaelis-Menten kinetics as well as the values of Ki and Ki’ were calculated by nonlinear regression from the substrate velocity curves. Linear regression was used for calculation of Lineweaver-Burk plots. All calculations were performed using GraphPad Prism software version 6.07 for Windows (San Diego, CA, USA).

The mark [4] stands for this setting: mean of at least three experiments, read-out: IC50 hBChE.

T2 sequence (P22303 32-614): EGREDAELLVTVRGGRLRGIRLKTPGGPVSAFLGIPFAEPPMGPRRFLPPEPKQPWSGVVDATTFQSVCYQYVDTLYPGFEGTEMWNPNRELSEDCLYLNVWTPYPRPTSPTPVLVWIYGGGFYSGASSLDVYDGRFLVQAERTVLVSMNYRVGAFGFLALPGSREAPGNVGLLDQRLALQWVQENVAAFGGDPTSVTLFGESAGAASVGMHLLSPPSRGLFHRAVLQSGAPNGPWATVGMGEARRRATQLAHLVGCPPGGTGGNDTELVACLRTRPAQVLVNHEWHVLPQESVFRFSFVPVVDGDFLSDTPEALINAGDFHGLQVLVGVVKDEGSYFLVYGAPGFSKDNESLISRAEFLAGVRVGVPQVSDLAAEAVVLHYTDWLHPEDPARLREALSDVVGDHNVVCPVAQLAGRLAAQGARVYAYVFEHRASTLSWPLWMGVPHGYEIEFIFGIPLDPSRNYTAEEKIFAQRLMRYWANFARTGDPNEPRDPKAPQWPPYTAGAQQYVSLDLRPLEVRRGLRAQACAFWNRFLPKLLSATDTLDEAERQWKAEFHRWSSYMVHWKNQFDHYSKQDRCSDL
T1 sequence (P22303 32-614): as above
Chain of human BChE (hBChE), human plasmatic butyrylcholinesterase (P06276 29-602): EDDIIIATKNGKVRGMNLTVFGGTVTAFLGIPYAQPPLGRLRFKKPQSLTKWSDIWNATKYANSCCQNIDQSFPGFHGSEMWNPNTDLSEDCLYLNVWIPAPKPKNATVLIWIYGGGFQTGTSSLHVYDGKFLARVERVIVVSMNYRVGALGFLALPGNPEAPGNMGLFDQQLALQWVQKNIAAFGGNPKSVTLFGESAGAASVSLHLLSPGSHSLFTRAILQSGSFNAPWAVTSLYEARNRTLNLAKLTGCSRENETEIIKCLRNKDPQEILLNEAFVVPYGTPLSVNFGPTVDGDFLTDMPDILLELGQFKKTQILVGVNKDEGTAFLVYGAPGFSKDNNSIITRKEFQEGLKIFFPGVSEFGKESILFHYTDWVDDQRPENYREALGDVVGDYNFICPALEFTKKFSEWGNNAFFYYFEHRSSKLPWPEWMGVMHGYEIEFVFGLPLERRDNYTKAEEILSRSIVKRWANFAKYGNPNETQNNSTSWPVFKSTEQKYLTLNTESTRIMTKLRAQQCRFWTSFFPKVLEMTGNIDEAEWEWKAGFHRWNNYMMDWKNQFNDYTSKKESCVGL

In the case of `COc1ccc2nc3c(c(NCCNc4c(NCCNc5c6c(nc7ccc(OC)cc57)CCCC6)c(=O)c4=O)c2c1)CCCC3` [Compound 5a, Bis({2-[(7-methoxy-1,2,3,4-tetrahydroacridin-9-yl)amino]ethyl}amino)cyclobut-3-ene-1,2-dione], in data set [1], the IC50 turned out to be 170 nM and the “SI (selectivity index for hAChE)” value is on record as 0.7. Also, the IC50 in data set [2] (setting [4]) stood at 130 nM. For the same compound, the IC50 at 24 h in “in vitro” was > 256000 nM. Moreover, in data set [3], the Pe was 2.3 ×10⁻⁶ cm/s, the “BBB permeation prediction in words” value was “uncertain BBB permeation” and the “CNS (+/−) predicted BBB permeation” value is listed as “CNS +/− (CNS +/−: BBB permeation uncertain with Pe (10^−6 cm·s^−1) from 4.0 to 2.0)”.

In the case of `COc1ccc2nc3c(c(NCCCCCNc4c(NCCCCCNc5c6c(nc7ccc(OC)cc57)CCCC6)c(=O)c4=O)c2c1)CCCC3` [Compound 5d, Bis({5-[(7-methoxy-1,2,3,4-tetrahydroacridin-9-yl)amino]pentyl}amino)cyclobut-3-ene-1,2-dione], in data set [1], the IC50 was found to be 120 nM, the “times more potent than reference (hAChE)” value came out at 83 times and the “SI (selectivity index for hAChE)” value came to 5.7. For the same compound, in data set [2], the IC50 amounted to 680 nM. Besides, the IC50 at 24 h in the data set “in vitro” was 98000 nM. In data set [3], the Pe came to 1.3 ×10⁻⁶ cm/s, the “BBB permeation prediction in words” value was “cannot presumably cross the BBB” and the “CNS (+/−) predicted BBB permeation” value is given as “CNS − (CNS −: low BBB permeation predicted with Pe (10^−6 cm·s^−1) < 2.0)”.

As for `O=c1c(NCCCCCCNc2c3c(nc4cc(Cl)ccc24)CCCC3)c(NCCCCCCNc2c3c(nc4cc(Cl)ccc24)CCCC3)c1=O` [Compound 4e, Bis({6-[(6-chloro-1,2,3,4-tetrahydroacridin-9-yl)amino]hexyl}amino)cyclobut-3-ene-1,2-dione], in data set [1], the IC50 is 3.2 nM and the “SI (selectivity index for hAChE)” value was 170. Further, the IC50 in data set [2] (setting [4]) came out at 540 nM. In addition, the IC50 at 24 h in “in vitro” is > 64000 nM. Moreover, in data set [3], the Pe was 17 ×10⁻⁶ cm/s, the “BBB permeation prediction in words” value is “high probability to cross the BBB” and the “CNS (+/−) predicted BBB permeation” value was “CNS + (CNS +: high BBB permeation predicted with Pe (10^−6 cm·s^−1) > 4.0)”.

Consider `O=c1c(NCCNc2c3c(nc4ccccc24)CCCC3)c(NCCNc2c3c(nc4ccccc24)CCCC3)c1=O` [Compound 3a, Bis({2-[(1,2,3,4-tetrahydroacridin-9-yl)amino]ethyl}amino)cyclobut-3-ene-1,2-dione], for which, in data set [1], the IC50 is 3.8 nM, the “times more potent than reference (hAChE)” value was 84 times and the “SI (selectivity index for hAChE)” value is 16. Also, in data set [2], the IC50 came to 62 nM. Besides, in the data set “in vitro”, the IC50 at 24 h is > 256000 nM. In data set [3], the Pe was 1.1 ×10⁻⁶ cm/s, the “BBB permeation prediction in words” value is “cannot presumably cross the BBB” and the “CNS (+/−) predicted BBB permeation” value was “CNS − (CNS −: low BBB permeation predicted with Pe (10^−6 cm·s^−1) < 2.0)”.

`O=c1c(NCCCCCCCNc2c3c(nc4ccccc24)CCCC3)c(NCCCCCCCNc2c3c(nc4ccccc24)CCCC3)c1=O` [Compound 3f, Bis({7-[(1,2,3,4-tetrahydroacridin-9-yl)amino]heptyl}amino)cyclobut-3-ene-1,2-dione]: in data set [1], the IC50 amounted to 32 nM and the “SI (selectivity index for hAChE)” value was 1. Moreover, the IC50 in data set [2] (setting [4]) was determined as 32 nM. The IC50 at 24 h in “in vitro” amounted to 23000 nM.

For `O=c1c(NCCCCCCCCNc2c3c(nc4ccccc24)CCCC3)c(NCCCCCCCCNc2c3c(nc4ccccc24)CCCC3)c1=O` [Compound 3g, Bis({8-[(1,2,3,4-tetrahydroacridin-9-yl)amino]octyl}amino)cyclobut-3-ene-1,2-dione], in data set [1], the IC50 was 72 nM and the “SI (selectivity index for hAChE)” value stood at 0.7. In addition, the IC50 in data set [2] (setting [4]) was determined as 50 nM. Moreover, the IC50 at 24 h in “in vitro” was 6600 nM.

On to `O=c1c(NCCCNc2c3c(nc4cc(Cl)ccc24)CCCC3)c(NCCCNc2c3c(nc4cc(Cl)ccc24)CCCC3)c1=O` [Compound 4b, Bis({3-[(6-chloro-1,2,3,4-tetrahydroacridin-9-yl)amino]propyl}amino)cyclobut-3-ene-1,2-dione], for which, in data set [1], the IC50 is 2 nM and the “SI (selectivity index for hAChE)” value turned out to be 55. For the same compound, the “times less active than bis(7)-tacrine (hAChE)” value in data set [1] (IC50 comparison with bis(7)-tacrine) is given as 2.5 times. For the same compound, the half-maximal inhibitory concentration (IC50) in data set [2] is 110 nM. Moreover, the “Ki'” value on hAChE (binding to enzyme-substrate complex, substrate acetylthiocholine) turned out to be 0.5 ± 0.2 nM. Further, at hAChE (binding to free enzyme, substrate acetylthiocholine), the affinity corresponds to a Ki of 0.4 ± 0.2 nM. The type of inhibition result on hAChE (nonlinear regression, sum-of-squares F-test, p < 0.05) was “mixed type of inhibition”. The IC50 at 24 h in “in vitro” is > 64000 nM. In data set [3], the Pe is 2.5 ×10⁻⁶ cm/s, the “BBB permeation prediction in words” value is on record as “uncertain BBB permeation” and the “CNS (+/−) predicted BBB permeation” value is recorded as “CNS +/− (CNS +/−: BBB permeation uncertain with Pe (10^−6 cm·s^−1) from 4.0 to 2.0)”.

With `O=c1c(NCCNc2c3c(nc4cc(Cl)ccc24)CCCC3)c(NCCNc2c3c(nc4cc(Cl)ccc24)CCCC3)c1=O` [Compound 4a, Bis({2-[(6-chloro-1,2,3,4-tetrahydroacridin-9-yl)amino]ethyl}amino)cyclobut-3-ene-1,2-dione], in data set [1], the IC50 came to 4.2 nM and the “SI (selectivity index for hAChE)” value was found to be 36. Besides, the IC50 in data set [2] (setting [4]) stood at 150 nM. The IC50 at 24 h in the data set “in vitro” is > 128000 nM.

Turning to `COc1ccc2nc3c(c(NCCCCCCCNc4c(NCCCCCCCNc5c6c(nc7ccc(OC)cc57)CCCC6)c(=O)c4=O)c2c1)CCCC3` [Compound 5f, Bis({7-[(7-methoxy-1,2,3,4-tetrahydroacridin-9-yl)amino]heptyl}amino)cyclobut-3-ene-1,2-dione], in data set [1], the IC50 is 170 nM and the “SI (selectivity index for hAChE)” value is listed as 7.6. In data set [2] (setting [4]), the IC50 is 1300 nM. Also, the IC50 at 24 h in “in vitro” turned out to be 9000 nM.
